This is an account of results in patent publication US6830916B2, “Sphingosine kinase, cloning, expression and methods of use” (priority 2000, dated 2004).

The target of series [1] is T1, hSPHK1 (Homo sapiens, UniProt Q9NYA1).
T1 construct: to obtain the full-length cDNA of hSPHK1; expressed in transfected cells; host or cells: HEK293
Kind of series: SPHK-dependent phosphorylation of sphingosine analogs and other lipids (substrate specificity of hSPHK1). It is filed as biochemical. Particulars: lipid 50 μM, lysates of HEK293 cells transfected with hSPHK1 as enzyme source. On the procedure:
(§1) Cytosolic sphingosine kinase activity was determined with 50 μM sphingosine dissolved in Triton X-100 (final concentration 0.25%) and […] (10 μCi, 1 mM) containing MgCl2 (10 mM). In some studies, sphingosine was added as a complex with bovine serum albumin (BSA). Specific activity was expressed as pmol SPP formed per minute per mg protein.
(§2) HEK293 cells were transfected with hSPHK1 and SPHK-dependent phosphorylation of various sphingosine analogs or other lipids (50 μM) was measured using cell lysates as enzyme source. DAG, diacylglycerol; PI, phosphatidylinositol; C2-CER, N-acetyl—sphingosine. […] SPHK activity in HEK293 cell lysates 24 h after transfection with hSPHK1 was measured with 10 μM […] in the absence or presence of 20 μM and 40 μM DMS or DHS. Data are means±SD and are expressed as percent inhibition.

Series [2] has as its target T1, hSPHK1. Put plainly: Inhibition of SPHK activity in lysates of HEK293 cells transfected with hSPHK1. The note with it: for inhibition of hSPHK1: 20 μM and 40 μM inhibitor, 10 μM SPP (so in the source), HEK293 lysates 24 h after transfection. The format is biochemical. On the procedure:
as §1, §2

Series [3] relates to mouse melanoma B10 cells. The note with it: low nanomolar concentrations of SPP; also SPP immobilized on glass beads; cited from earlier work.
Series [4] concerns c-myc-SPHK. Put plainly: Cytosolic c-myc-SPHK activity in transfected NIH 3T3 fibroblasts. It is filed as cell-based. How it is done:
as §1

Substrate in series [5]: CCCCCCCCCCCCC/C=C/[C@@H](O)[C@@H](N)CO
Kind of series: SPHK-dependent phosphorylation of sphingosine analogs and other lipids (substrate specificity of hSPHK1). It is filed as biochemical, human. The note with it: other: D-erythro-sphingosine as substrate. How it is done:
as §1, §2

In the case of `CCCCCCCCCCCCC/C=C/[C@@H](O)[C@@H](N)CO` [D-erythro-sphingosine], the “substrate of hSPHK1 (SPHK-dependent phosphorylation)” value (from here on “substrate of hSPHK1”) in series [1] was “more efficiently phosphorylated than sphingamine”; in series [1] (listed as D-(+)-erythro-trans-isomer of sphingosine) it was “best substrates”. On to phosphatidylinositol, for which the “substrate of hSPHK1” value in series [1] is listed as “not substrates”. On the same count and under the same terms, with `CCCCCCCCCCCCC/C=C/[C@@H](O)[C@H](CO)NC(C)=O` [C2-ceramide, N-acetyl—sphingosine] the entry was “not substrates”. In the case of `CCCCCCCCCCCCCCC[C@H](O)[C@@H](N)CO` [DHS, D,L-threo-dihydrosphingosine], in series [1], the “substrate of hSPHK1” value is “not substrates”. Further, the results for the “inhibition of hSPHK1” value in series [2] and in series [2] (listed as D,L-threo-dihydro-sphingosine) were “inhibited hSPHK1” and “inhibitors of hSPHK1”, respectively. Besides, in series [2] (DHS compared with DMS), the “relative inhibitory potency on hSPHK1” value is reported as “slightly more potent thank DMS”. Regarding `CCCCCCCCCCCCC/C=C/[C@@H](O)[C@@H](N)COP(=O)(O)O` [SPP, Sphingosine-1-phosphate], the “effect on cell motility” value in series [3] was “inhibited the motility”. As for PDGF, the “effect on cytosolic c-myc-SPHK activity” value in series [4] is recorded as “stimulated”. diacylglycerol: the “substrate of hSPHK1” value in series [1] was “not substrates”. N,N-dimethylsphingosine [DMS]: the “inhibition of hSPHK1” value in series [2] is “inhibitors of hSPHK1”; in series [2] (listed as CMS), “inhibited hSPHK1”. Consider `CCCCCCCCCCCCCCC[C@H](O)[C@H](N)CO` [erythrodihydrosphingosine], for which the “substrate of hSPHK1” value in series [1] is “best substrates”.

B1: hSPHK1 (Homo sapiens) (protein)
chain: MDPAGGPRGVLPRPCRVLVLLNPRGGKGKALQLFRSHVQPLLAEAEISFTLMLTERRNHARELVRSEELGRWDALVVMSGDGLMHEVVNGLMERPDWETAIQKPLCSLPAGSGNALAASLNHYAGYEQVTNEDLLTNCTLLLCRRLLSPMNLLSLHTASGLRLFSVLSLAWGFIADVDLESEKYRRLGEMRFTLGTFLRLAALRTYRGRLAYLPVGRVGSKTPASPVVVQQGPVDAHLVPLEEPVPSHWTVVPDEDFVLVLALLHSHLGSEMFAAPMGRCAAGVMHLFYVRAGVSRAMLLRLFLAMEKGRHMEYECPYLVYVPVVAFRLEPKDGKGVFAVDGELMVSEAVQGQVHPNYFWMVSGCVEPPPSWKPQQMPPPEEPL
notes: to obtain the full-length cDNA of hSPHK1; expressed in transfected cells; host or cells: HEK293
The Km is the concentration of substrate that gives half-maximal velocity. As to B1, the Km in series [5] was 5 µM.
